Test results: US4349545A, “Novel erythromycin a derivatives” (Roussel Uclaf, priority 1980, dated 1982)
≈ marks a conversion by molar mass, not a printed value.

Key:
[1] = test system: Staphylococcus aureus UC 1128; assay: serial dilution liquid medium MIC, Staphylococcus aureus UC 1128 pen-resistant; format: cell-based; settings: UC1128; Staphylococcus aureus UC 1128 pen-resistant; 24 hours at 37° C.; read-out: minimum inhibiting concentration (MIC)
Description: (§1) The method was a serial dilution of liquid medium test wherein a series of tubes were prepared containing the same amount of sterile nutritive medium and increasing amounts of the test product was distributed in each tube. The tubes were then seeded with a bacterial strain and incubated for 24 hours in an oven at 37° C. The degree of inhibition was determined by transillumination to determine the minimum inhibiting concentration (MIC) express in μg/ml and the results are reported in the following Tables.

[2] = test system: Staphylococcus aureus exp. n° 54 146; assay: serial dilution liquid medium MIC, Staphylococcus aureus exp. n° 54 146; format: cell-based; settings: Staphylococcus aureus exp. 54 146; 24 hours at 37° C.; read-out: minimum inhibiting concentration (MIC)
Description: as §1

[3] = test system: Streptococcus faecalis 5435; assay: serial dilution liquid medium MIC, Streptococcus faecalis 5435; format: cell-based; settings: Enterococcus faecalis, 24 hours at 37° C., read-out: minimum inhibiting concentration (MIC)
Description: as §1

[4] = test system: Streptococcus pyogenes A 561; assay: serial dilution liquid medium MIC, Streptococcus pyogenes A 561; format: cell-based; settings: A561, 24 hours at 37° C., read-out: minimum inhibiting concentration (MIC)
Description: as §1

[5] = test system: Streptococcus faecalis 5432; assay: serial dilution liquid medium MIC, Streptococcus faecalis 5432; format: cell-based; settings: Enterococcus faecalis, 24 hours at 37° C., read-out: minimum inhibiting concentration (MIC)
Description: as §1

[6] = test system: Staphylococcus aureus No. 54,146; assay: In vivo activity in mice experimentally infected with Staphylococcus aureus No. 54,146; settings: groups of 10 mice
Description: The test was effected with the compounds of the invention and erythromycin as a reference on groups of 10 mice weighing about 21 g experimentally infected with Staphylococcus aureus No. 54,146 by intraperitoneal administration of 0.5 ml of a 22 hour culture of the said organism in bouillon with a pH of 7 diluted to 1/6 with physiological water. The test compounds were orally administrated to the mice 1,5 and 24 hours after the infection and the mortality on the 8th day was determined.

[7] = test system: Staphylococcus aureus 1061; assay: serial dilution liquid medium MIC, Staphylococcus aureus 1061 pen-sensibles; format: cell-based; settings: 24 hours at 37° C., read-out: minimum inhibiting concentration (MIC)
Description: as §1

[8] = test system: Streptococcus faecalis 99 F 74; assay: serial dilution liquid medium MIC, Streptococcus faecalis 99 F 74; format: cell-based; settings: Enterococcus faecalis, 99F74, 24 hours at 37° C., read-out: minimum inhibiting concentration (MIC)
Description: as §1

[9] = dose 0,5mg oral, 1,5 and 24 hours after infection
[10] = dose 0,25mg oral, 1,5 and 24 hours after infection
[11] = dose 0,75mg oral, 1,5 and 24 hours after infection
[12] = dose 1mg oral, 1,5 and 24 hours after infection

| SMILES | MIC [1] [µg/mL] | MIC [2] [µg/mL] | MIC [3] [µg/mL] | MIC [4] [µg/mL] | MIC [5] [µg/mL] | No. of mice living on the 8th day [6, 9] [mice] | No. of mice living on the 8th day [6, 10] [mice] | No. of mice living on the 8th day [6, 11] [mice] | MIC [7] [µg/mL] | MIC [8] [µg/mL] | No. of mice living on the 8th day [6, 12] [mice] |
| --- | --- | --- | --- | --- | --- | --- | --- | --- | --- | --- | --- |
| CCOCON=C1[C@H](C)C[C@@](C)(O)[C@H](O[C@@H]2O[C@H](C)C[C@H](N(C)C)[C@H]2O)[C@@H](C)[C@H](O[C@H]2C[C@@](C)(OC)[C@@H](O)[C@H](C)O2)[C@@H](C)C(=O)O[C@H](CC)[C@@](C)(O)[C@H](O)[C@H]1C [Example 20, 9-[0-(ethoxymethyl)-oxime] of erythromycin] | 0.6 (≈ 0.743 µM) | 0.4 (≈ 0.496 µM) | 0.2 (≈ 0.248 µM) | 0.1 (≈ 0.124 µM) | 0.1 (≈ 0.124 µM) | 4 | 2 | 10 | 0.4 (≈ 0.496 µM) | 0.1 (≈ 0.124 µM) |  |
| CC[C@H]1OC(=O)[C@H](C)[C@@H](O[C@H]2C[C@@](C)(OC)[C@@H](O)[C@H](C)O2)[C@H](C)[C@@H](O[C@@H]2O[C@H](C)C[C@H](N(C)C)[C@H]2O)[C@](C)(O)C[C@@H](C)C(=NOC(C)CN(C)C)[C@H](C)[C@@H](O)[C@]1(C)O (stereo partly drawn) [Example 36, 9-[O-(2-dimethylamino-1-methyl-ethyl)-oxime] of erythromycin] | 0.5 (≈ 0.599 µM) | 0.5 (≈ 0.599 µM) | 0.5 (≈ 0.599 µM) | ≤ 0.01 | 0.1 (≈ 0.12 µM) | 9 | 3 | 10 | 0.2 (≈ 0.24 µM) | 0.1 (≈ 0.12 µM) |  |
| CC[C@H]1OC(=O)[C@H](C)[C@@H](O[C@H]2C[C@@](C)(OC)[C@@H](O)[C@H](C)O2)[C@H](C)[C@@H](O[C@@H]2O[C@H](C)C[C@H](N(C)C)[C@H]2O)[C@](C)(O)C[C@@H](C)C(=NOCC2OCCO2)[C@H](C)[C@@H](O)[C@]1(C)O [Example 30, 9-[0-{(1,3-dioxolan-2-yl)-methyl}-oxime] of erythromycin] | 0.6 (≈ 0.719 µM) | 0.4 (≈ 0.479 µM) | 2 (≈ 2.4 µM) | 0.05 (≈ 0.0599 µM) | 0.4 (≈ 0.479 µM) | 7 | 2 | 10 | 0.4 (≈ 0.479 µM) | 0.2 (≈ 0.24 µM) |  |
| CC[C@H]1OC(=O)[C@H](C)[C@@H](O[C@H]2C[C@@](C)(OC)[C@@H](O)[C@H](C)O2)[C@H](C)[C@@H](O[C@@H]2O[C@H](C)C[C@H](N(C)C)[C@H]2O)[C@](C)(O)C[C@@H](C)C(=NOCOC)[C@H](C)[C@@H](O)[C@]1(C)O [Example 33, 9-[O-(methoxymethyl)-oxime] of erythromycin] | 0.4 (≈ 0.504 µM) | 0.2 (≈ 0.252 µM) | 0.2 (≈ 0.252 µM) | 0.02 (≈ 0.0252 µM) | 0.1 (≈ 0.126 µM) | 10 | 7 |  | 0.1 (≈ 0.126 µM) | 0.1 (≈ 0.126 µM) |  |
| CC[C@H]1OC(=O)[C@H](C)[C@@H](O[C@H]2C[C@@](C)(OC)[C@@H](O)[C@H](C)O2)[C@H](C)[C@@H](O[C@@H]2O[C@H](C)C[C@H](N(C)C)[C@H]2O)[C@](C)(O)C[C@@H](C)C(=NOCC(OC)OC)[C@H](C)[C@@H](O)[C@]1(C)O [Example 29, 9-[0-(2,2-dimethoxyethyl)-oxime] of erythromycin] | 1 (≈ 1.19 µM) | 0.4 (≈ 0.478 µM) | 1 (≈ 1.19 µM) | 0.1 (≈ 0.119 µM) | 0.4 (≈ 0.478 µM) | 8 | 2 | 9 | 0.4 (≈ 0.478 µM) | 0.2 (≈ 0.239 µM) | 10 |
| CC[C@H]1OC(=O)[C@H](C)[C@@H](O[C@H]2C[C@@](C)(OC)[C@@H](O)[C@H](C)O2)[C@H](C)[C@@H](O[C@@H]2O[C@H](C)C[C@H](N(C)C)[C@H]2O)[C@](C)(O)C[C@@H](C)C(=NOCCN2CCOCC2)[C@H](C)[C@@H](O)[C@]1(C)O [Example 35, 9-[O-(2-{morpholin-4-yl}-ethyl)oxime] of erythromycin] | 1 (≈ 1.16 µM) | 0.6 (≈ 0.696 µM) | 1 (≈ 1.16 µM) | 0.05 (≈ 0.058 µM) | 0.2 (≈ 0.232 µM) | 8 | 2 | 9 | 0.4 (≈ 0.464 µM) | 0.4 (≈ 0.464 µM) | 10 |
| CC[C@H]1OC(=O)[C@H](C)[C@@H](O[C@H]2C[C@@](C)(OC)[C@@H](O)[C@H](C)O2)[C@H](C)[C@@H](O[C@@H]2O[C@H](C)C[C@H](N(C)C)[C@H]2O)[C@](C)(O)C[C@@H](C)C(=NOCCC#N)[C@H](C)[C@@H](O)[C@]1(C)O [Example 14, 9-[0-(2-cyanoethyl)-oxime] of erythromycin] | 0.4 (≈ 0.499 µM) | 0.4 (≈ 0.499 µM) | 0.4 (≈ 0.499 µM) | 0.02 (≈ 0.0249 µM) | 0.1 (≈ 0.125 µM) |  |  |  | 0.2 (≈ 0.249 µM) | 0.05 (≈ 0.0623 µM) |  |
| CC[C@H]1OC(=O)[C@H](C)[C@@H](O[C@H]2C[C@@](C)(OC)[C@@H](O)[C@H](C)O2)[C@H](C)[C@@H](O[C@@H]2O[C@H](C)C[C@H](N(C)C)[C@H]2O)[C@](C)(O)C[C@@H](C)C(=NOCCN2CCN(C)CC2)[C@H](C)[C@@H](O)[C@]1(C)O [Example 43, 9-[O-(2-{4-methyl-piperazino-1-yl}-ethyl)-oxime] of erythromycin] | 2 (≈ 2.29 µM) | 1 (≈ 1.14 µM) | 0.4 (≈ 0.457 µM) | ≤ 0.01 | 0.2 (≈ 0.229 µM) |  |  |  | 1 (≈ 1.14 µM) | 0.05 (≈ 0.0571 µM) |  |
| CC[C@H]1OC(=O)[C@H](C)[C@@H](O[C@H]2C[C@@](C)(OC)[C@@H](O)[C@H](C)O2)[C@H](C)[C@@H](O[C@@H]2O[C@H](C)C[C@H](N(C)C)[C@H]2O)[C@](C)(O)C[C@@H](C)C(=NOCOCCNC)[C@H](C)[C@@H](O)[C@]1(C)O [Example 25, 9-[0-{(2-methylamino-ethoxy}-methyl)-oxime] of erythromycin] | 0.5 (≈ 0.598 µM) | 0.5 (≈ 0.598 µM) | 0.2 (≈ 0.239 µM) | ≤ 0.01 | 0.05 (≈ 0.0598 µM) |  |  |  | 0.5 (≈ 0.598 µM) | 0.05 (≈ 0.0598 µM) |  |
| CC[C@H]1OC(=O)[C@H](C)[C@@H](O[C@H]2C[C@@](C)(OC)[C@@H](O)[C@H](C)O2)[C@H](C)[C@@H](O[C@@H]2O[C@H](C)C[C@H](N(C)C)[C@H]2O)[C@](C)(O)C[C@@H](C)C(=NOCC(O)CN(C)C)[C@H](C)[C@@H](O)[C@]1(C)O (stereo partly drawn) [Example 48, 9-[0-(3-dimethylamino-2-hydroxy-propyl)-oxime] of erythromycin] | 0.6 (≈ 0.706 µM) | 0.6 (≈ 0.706 µM) | 1 (≈ 1.18 µM) | 0.05 (≈ 0.0588 µM) | 0.4 (≈ 0.471 µM) |  |  |  | 0.4 (≈ 0.471 µM) | 0.1 (≈ 0.118 µM) |  |
| CC[C@H]1OC(=O)[C@H](C)[C@@H](O[C@H]2C[C@@](C)(OC)[C@@H](O)[C@H](C)O2)[C@H](C)[C@@H](O[C@@H]2O[C@H](C)C[C@H](N(C)C)[C@H]2O)[C@](C)(O)C[C@@H](C)C(=NOCOCCN(CC)CC)[C@H](C)[C@@H](O)[C@]1(C)O [Example 23, 9-[0-{(2-diethylaminoethoxy)-methyl}-oxime] of erythromycin] | 1 (≈ 1.14 µM) | 0.6 (≈ 0.683 µM) | 0.2 (≈ 0.228 µM) | 0.02 (≈ 0.0228 µM) | 0.1 (≈ 0.114 µM) |  |  |  | 0.4 (≈ 0.456 µM) | 0.1 (≈ 0.114 µM) |  |
